In ChEMBL document CHEMBL4834417, “Diverse Polycyclic Polyprenylated Acylphloroglucinol Congeners with Anti-Nonalcoholic Steatohepatitis Activity from Hypericum forrestii” (J Nat Prod, 2021):
The source made the active and inactive calls.

Tests used:
Type in all cases: functional, cell-based
L02 [1] = assay: Anti-nonalcoholic steatohepatitis activity in FFA-induced human L02 cells assessed as upregulation of ACOX1 mRNA expression at 10 uM by QRT-PCR analysis
L02 [2] = assay: Anti-nonalcoholic steatohepatitis activity in FFA-induced human L02 cells assessed as reduction in lipid droplets after 48 hrs by Oil red O staining based assay; details: dose 5-10 µM
L02 [3] = assay: Anti-nonalcoholic steatohepatitis activity in FFA-induced human L02 cells assessed as upregulation of PPARalpha mRNA expression at 10 uM by QRT-PCR analysis
L02 [4] = assay: Anti-nonalcoholic steatohepatitis activity in FFA-induced human L02 cells assessed as reduction in lipid droplets at 5 uM after 48 hrs by Oil red O staining based assay
L02 [5] = assay: Anti-nonalcoholic steatohepatitis activity in FFA-induced human L02 cells assessed as downregulation of FASN mRNA expression at 10 uM by QRT-PCR analysis
L02 [6] = assay: Anti-nonalcoholic steatohepatitis activity in FFA-induced human L02 cells assessed as downregulation of CD36 mRNA expression at 10 uM by QRT-PCR analysis

Measured: Activity

CC(C)=CCC[C@]1(C)[C@@H](CC=C(C)C)C[C@]23C[C@H](C(C)(C)O)OC2=C(CC=C(C)C)C(=O)[C@@]1(C(=O)c1ccccc1)C3=O
active: L02 [1] | L02 [2] Dose-Dependent Effect | L02 [3] | L02 [4] | L02 [5] | L02 [6]

CC(C)=CCC/C(C)=C/C[C@]1(CC=C(C)C)C(=O)C(C(=O)c2ccccc2)=C2OC(C)(C)[C@@H]3C[C@]23C1=O
active: L02 [1] | L02 [2] Dose-Dependent Effect | L02 [3] | L02 [4] | L02 [5] | L02 [6]
